# Values of other authors, collected in patent US20100166887A1, “DIBENZO[b,e][1,4]DIAZEPINE MODULATORS OF DOPAMINE RECEPTORS, SEROTONIN RECEPTORS, ADRENERGIC RECEPTORS, ACETYLCHOLINE RECEPTORS, AND/OR HISTAMINE RECEPTORS” (Auspex Pharmaceuticals, Inc., priority 2008, published 2010).
# Molecular target: human ether-a-gogo related gene (hERG) potassium channel (Homo sapiens, UniProt Q12809)
# Conditions: Pearlstein et al., J. Med. Chem., 2003
# Chain of human ether-a-gogo related gene (hERG) potassium channel (Q12809 whole entry): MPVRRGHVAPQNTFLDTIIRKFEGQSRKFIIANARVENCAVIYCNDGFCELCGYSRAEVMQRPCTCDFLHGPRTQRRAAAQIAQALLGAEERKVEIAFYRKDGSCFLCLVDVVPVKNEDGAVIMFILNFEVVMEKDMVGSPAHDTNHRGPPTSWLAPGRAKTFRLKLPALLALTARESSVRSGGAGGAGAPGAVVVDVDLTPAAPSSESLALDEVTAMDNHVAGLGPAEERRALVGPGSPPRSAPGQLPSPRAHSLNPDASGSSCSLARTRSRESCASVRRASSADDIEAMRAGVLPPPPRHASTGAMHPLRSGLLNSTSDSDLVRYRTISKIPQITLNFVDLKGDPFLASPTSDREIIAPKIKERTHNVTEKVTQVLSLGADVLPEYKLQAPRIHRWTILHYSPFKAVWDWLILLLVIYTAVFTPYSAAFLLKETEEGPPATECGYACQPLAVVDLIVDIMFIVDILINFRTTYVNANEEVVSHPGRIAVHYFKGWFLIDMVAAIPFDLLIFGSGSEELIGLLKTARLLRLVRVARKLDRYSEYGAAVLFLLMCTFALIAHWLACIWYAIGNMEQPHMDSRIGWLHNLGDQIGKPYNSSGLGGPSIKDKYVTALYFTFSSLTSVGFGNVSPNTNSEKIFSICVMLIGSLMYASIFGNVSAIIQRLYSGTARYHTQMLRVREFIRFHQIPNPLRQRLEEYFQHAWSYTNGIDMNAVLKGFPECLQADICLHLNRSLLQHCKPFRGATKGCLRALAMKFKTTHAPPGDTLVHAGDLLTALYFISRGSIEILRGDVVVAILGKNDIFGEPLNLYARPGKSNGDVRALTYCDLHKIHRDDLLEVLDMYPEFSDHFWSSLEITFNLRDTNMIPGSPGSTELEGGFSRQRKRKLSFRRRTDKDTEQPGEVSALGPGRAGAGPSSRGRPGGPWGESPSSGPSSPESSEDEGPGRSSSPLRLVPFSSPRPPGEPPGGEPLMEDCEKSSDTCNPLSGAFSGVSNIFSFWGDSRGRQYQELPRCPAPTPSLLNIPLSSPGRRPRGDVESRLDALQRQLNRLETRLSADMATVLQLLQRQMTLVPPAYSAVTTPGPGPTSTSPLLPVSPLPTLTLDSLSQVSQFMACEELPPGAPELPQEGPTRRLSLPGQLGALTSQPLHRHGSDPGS
smiles,measurement,value
"Clc1ccc2c(c1)N=C(N1CCNCC1)c1ccccc1N2 [N-desmethyl clozapine, 8-Chloro-11-(4-piperazino)-5H-dibenzo[b,e][1,4]diazepine]",inhibition of the hERG potassium channel,inhibits
